Test results from patent US20240122180A1, “FUNGICIDAL HALOMETHYL KETONES AND HYDRATES AND THEIR MIXTURES” (FMC Corporation, priority 2020, published 2024).
Marks after values point to notes of the source that are not given here.

How the values were obtained:
Format in all cases: in vivo
[1] = test system: Puccinia recondita f. sp. tritici (the causal agent of wheat leaf rust); test: Test B: preventive spray on wheat seedlings, disease rating (100 = 100% control; * 50 ppm, ** 10 ppm, *** 250 ppm); conditions: 100 = 100% disease control
Outline: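 Wheat seedlings sprayed to run-off with compound in acetone/water (50/50) containing 250 ppm PEG400, inoculated next day with Puccinia recondita f. sp. tritici spores. Held 24 h saturated at 20° C, then 6 days at 20° C; disease control rated 0–100 relative to controls.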

[2] = test system: Phakopsora pachyrhizi (the causal agent of Asian soybean rust); test: Test F: Compound 32 or 64 alone and in mixtures on soybean seedlings, observed (Obsd) and Colby expected (Exp) disease control; conditions: Phakopsora pachyrhizi; for pest or weed control at 0.303 ppm: Compound 64 0.303 ppm alone; for pest or weed control at 0.489 ppm: Compound 64 0.489 ppm alone
From the text: The general protocol for preparing test compositions for Test F was as follows: Compound 32, Compound 64, azoxystrobin, benzovindiflupyr, bixafen, chlorothalonil, cyproconazole, epoxiconazole, fenpropidin, fenpropimorph, fluindapyr, flutriafol, fluxapyroxad, metominostrobin, picoxystrobin, prothioconazole, pydiflumetofen, pyraclostrobin, tebuconazole and trifloxystrobin were obtained as unformulated, technical-grade materials. Copper hydroxide and mancozeb was obtained as a formulated product marketed under the trademarks KOCIDE 3000 and MANZATE, respectively. Unformulated materials were first dissolved in acetone and then suspended at the desired concentration (in ppm) in acetone and purified water (50/50 mix by volume) containing 250 ppm of the surfactant Trem® 014 (polyhydric alcohol esters). Formulated materials were dispersed in sufficient water to give the desired concentration, and neither organic solvent nor surfactant was added to the suspension. The resulting test mixtures were then used in Test F. The tests were run on four individual plants and the results reported as the mean average of the four plants.
The presence of a synergistic effect between two active ingredients was established with the aid of the Colby equation (see Colby, S. R. “Calculating Synergistic and Antagonistic Responses of Herbicide Combinations”, Weeds, (1967), 15, 20-22):
Using the method of Colby, the presence of a synergistic interaction between two active ingredients is established by first calculating the predicted activity, p, of the mixture based on activities of the two components applied alone. If p is lower than the experimentally established effect, synergism has occurred. In the equation above, A is the fungicidal activity in percentage control of one component applied alone at rate x. The B term is the fungicidal activity in percentage control of the second component applied at rate y. The equation estimates p, the expected fungicidal activity of the mixture of A at rate x with B at rate y if their effects are strictly additive and no interaction has occurred.
The test mixture was sprayed to the point of run-off on soybean seedlings. The following day the seedlings were inoculated with a spore suspension of Phakopsora pachyrhizi (the causal agent of Asian soybean rust) and incubated in a saturated atmosphere at 22° C. for 24 h and then moved to a growth chamber at 22° C. for 8 days, after which time visual disease ratings were made.
Results for Test F are given in Tables B-1 through I-1 for Compound 32 and Tables B-2 through I-2 for Compound 64. Each table corresponds to a set of evaluations performed together at the same time. In each table, a rating of 100 indicates 100% disease control and a rating of 0 indicates no disease control (relative to the controls). Columns labeled “Obsd” indicate the average of results observed from test run on four individual plants. Columns labeled “Exp” indicate the expected value for each treatment mixture using the Colby equation.

[3] = test system: Zymoseptoria tritici (the causal agent of wheat leaf blotch); test: Test D: preventive spray on wheat seedlings, disease rating (100 = 100% control; * 50 ppm, ** 10 ppm, *** 250 ppm); conditions: 100 = 100% disease control; for pest or weed control at 250 ppm / Test D disease control rating: 250 ppm test suspension
From the text: (§1) General protocol for preparing test suspensions for Tests A-E: the test compounds were first dissolved in acetone in an amount equal to 3% of the final volume and then suspended at the desired concentration (in ppm) in acetone and purified water (50/50 mix by volume) containing 250 ppm of the surfactant […] (polyhydric alcohol esters). The resulting test suspensions were then used in Tests A-E.
The test solution was sprayed to the point of run-off on wheat seedlings. The following day the seedlings were inoculated with a spore suspension of Zymoseptoria tritici (the causal agent of wheat leaf blotch) and incubated in a saturated atmosphere at 24° C. for 48 h, and then moved to a growth chamber at 20° C. for 17 days, after which time disease ratings were made.
(§2) Results for Tests A-E are given in Table A. In the Table, a rating of 100 indicates 100% disease control and a rating of 0 indicates no disease control (relative to the controls). An asterisk “*” or a double asterisk “**” or a triple asterisk “***” next to the rating value indicates a 50 ppm, 10 ppm and 250 ppm test suspension was used, respectively. A dash (-) indicates the compound was not tested.

[4] = test system: Blumeria graminis f. sp. tritici (the causal agent of wheat powdery mildew); test: Test E: preventive spray on wheat seedlings, visual disease rating (100 = 100% control; * 50 ppm, ** 10 ppm, *** 250 ppm); conditions: 100 = 100% disease control; for pest or weed control at 250 ppm / Test E disease control rating: 250 ppm test suspension
From the text: as §1
The test suspension was sprayed to the point of run-off on wheat seedlings. The following day the seedlings were inoculated with a spore dust of Blumeria graminis f. sp. tritici, (also known as Erysiphe graminis f. sp. tritici, the causal agent of wheat powdery mildew) and incubated in a growth chamber at 20° C. for 8 days, after which time visual disease ratings were made.
as §2

[5] = test system: Uncinula necator (the causal agent of grape powdery mildew); test: Test C: preventive spray on grape seedlings, disease rating (100 = 100% control; * 50 ppm, ** 10 ppm, *** 250 ppm); conditions: 100 = 100% disease control
From the text: as §1
The test solution was sprayed to the point of run-off on grape seedlings. The following day the seedlings were inoculated with a spore suspension of Uncinula necator (the causal agent of grape powdery mildew) and incubated in a growth chamber at 20° C. for 12 days, after which time disease ratings were made.
as §2

[6] = test system: Phakopsora pachyrhizi (the causal agent of Asian soybean rust); test: Test A: preventive spray on soybean seedlings, visual disease rating (100 = 100% control; * 50 ppm, ** 10 ppm, *** 250 ppm); conditions: 100 = 100% disease control
Outline: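 Soybean seedlings sprayed to run-off with compound suspended in acetone/water with 250 ppm PEG400 surfactant, inoculated next day with P. pachyrhizi spores. Kept 24 h saturated at 22 °C, then 8 days at 22 °C before visual rating of disease control (0-100) relative to controls.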

[7] = Zymoseptoria tritici, wheat seedlings
[8] = Blumeria graminis, wheat seedlings
[9] = Puccinia recondita, 10 ppm test suspension, wheat seedlings
[10] = Erysiphe necator, 250 ppm test suspension, grape seedlings
[11] = Puccinia recondita, 10 ppm test suspension, 0 = no control
[12] = Erysiphe necator, 50 ppm test suspension, 0 = no control
[13] = Puccinia recondita, 50 ppm test suspension, 0 = no control
[14] = 250 ppm test suspension, 0 = no control
[15] = 50 ppm test suspension, 0 = no control

CCOC(=O)c1cnn(Cc2ccc(O/C=C(\OCC)C(F)(F)F)cc2)c1 [Compound 64, ethyl 1-[[4-[[(1Z)-2-ethoxy-3,3,3-trifluoro-1-propen-1-yl]oxy]phenyl]methyl]-1H-pyrazole-4-carboxylate]
pest or weed control at 250 ppm ([1]; Puccinia recondita, 250 ppm test suspension, wheat seedlings): 99% | pest or weed control at 0.303 ppm ([2]; Table B-2): 53% | pest or weed control at 0.303 ppm ([2]; Table C-2): 34% | pest or weed control at 0.303 ppm ([2]; Table D-2): 49% | pest or weed control at 0.303 ppm ([2]; Table E-2): 78% | pest or weed control at 0.303 ppm ([2]; Table F-2): 37% | pest or weed control at 0.303 ppm ([2]; Table G-2): 52% | pest or weed control at 0.303 ppm ([2]; Table H-2): 50% | pest or weed control at 0.303 ppm ([2]; Table I-2): 50% | pest or weed control at 0.489 ppm ([2]; Table B-2): 68% | pest or weed control at 0.489 ppm ([2]; Table C-2): 63% | pest or weed control at 0.489 ppm ([2]; Table D-2): 63% | pest or weed control at 0.489 ppm ([2]; Table E-2): 77% | pest or weed control at 0.489 ppm ([2]; Table F-2): 68% | pest or weed control at 0.489 ppm ([2]; Table G-2): 50% | pest or weed control at 0.489 ppm ([2]; Table H-2): 70% | pest or weed control at 0.489 ppm ([2]; Table I-2): 81% | pest or weed control at 250 ppm [3, 7]: 73% | pest or weed control at 250 ppm [4, 8]: 99%

CCCCOC(=O)c1cnn(Cc2ccc(O/C=C(\OCC)C(F)(F)F)cc2)c1 [Compound 218, butyl 1-[[4-[[(1Z)-2-ethoxy-3,3,3-trifluoro-1-propen-1-yl]oxy]phenyl]methyl]-1H-pyrazole-4-carboxylate]
pest or weed control at 10 ppm [1, 9]: 0% | pest or weed control at 250 ppm [3, 7]: 53% | pest or weed control at 250 ppm [4, 8]: 90% | pest or weed control at 250 ppm [5, 10]: 75%

CCO/C(=C\Oc1ccc(Cn2cc(C(=O)OCCCCl)cn2)cc1)C(F)(F)F [Compound 221, 3-chloropropyl 1-[[4-[[(1Z)-2-ethoxy-3,3,3-trifluoro-1-propen-1-yl]oxy]phenyl]methyl]-1H-pyrazole-4-carboxylate]
pest or weed control at 10 ppm [1, 9]: 0% | pest or weed control at 250 ppm [3, 7]: 10% | pest or weed control at 250 ppm [4, 8]: 95% | pest or weed control at 250 ppm [5, 10]: 41%

CCOC(=O)c1cnn(Cc2ccc(OCC3(C(F)(F)F)OCCO3)c(F)c2)c1 [Compound 263, ethyl 1-[[3-fluoro-4-[[2-(trifluoromethyl)-1,3-dioxolan-2-yl]methoxy]phenyl]methyl]-1H-pyrazole-4-carboxylate]
pest or weed control at 10 ppm [1, 11]: 0% | pest or weed control at 50 ppm [5, 12]: 100%

CCOC(=O)c1cnn(Cc2cccc(O/C=C(\OCC)C(F)(F)F)c2)c1 [Compound 265, ethyl 1-[[3-[[(1Z)-2-ethoxy-3,3,3-trifluoro-1-propen-1-yl]oxy]phenyl]methyl]-1H-pyrazole-4-carboxylate]
pest or weed control at 50 ppm [1, 13]: 0% | pest or weed control at 50 ppm [5, 12]: 98%

CCOC(=O)c1cnn(COc2ccc(O/C=C(\OCC)C(F)(F)F)cc2)c1 [Compound 364, ethyl 1-[[4-[[(1Z)-2-ethoxy-3,3,3-trifluoro-1-propen-1-yl]oxy]phenoxy]methyl]-1H-pyrazole-4-carboxylate]
pest or weed control at 50 ppm [1, 13]: 0% | pest or weed control at 50 ppm ([3]; Zymoseptoria tritici, 50 ppm test suspension, 0 = no control): 0% | pest or weed control at 50 ppm ([4]; Blumeria graminis, 50 ppm test suspension, 0 = no control): 56% | pest or weed control at 50 ppm [5, 12]: 100%

CCOC(=O)c1cnn(Cc2ccc(OCC(O)(O)C(F)(F)F)c(F)c2F)c1 [Compound 431]
Test D disease control rating ([3]; 0 = no control): 93% | Test E disease control rating ([4]; 0 = no control): 96% | Test C disease control rating [5, 14]: 36%

O=C(COC(=O)c1cnn(Cc2ccc(OCC3(C(F)(F)F)OCCO3)cc2)c1)c1ccccc1 [compound 170]
Test B disease control rating ([1]; 10 ppm test suspension, wheat seedlings): 0% | Test A disease control rating ([6]; 10 ppm test suspension, soybean seedlings): 100% | Test C disease control rating ([5]; 50 ppm test suspension, grape seedlings): 100* %

CCOC(=O)c1cnn(Cc2ccc(OCC3(C(F)(F)F)OCCO3)s2)c1 [compound 273]
pest or weed control at 50 ppm [1, 13]: 0% | pest or weed control at 250 ppm ([3]; Zymoseptoria tritici, 0 = no control): 20% | pest or weed control at 250 ppm ([4]; Blumeria graminis, 0 = no control): 65% | pest or weed control at 250 ppm ([5]; Erysiphe necator, 250 ppm test suspension, 0 = no control): 49%

CCOC(=O)c1cnn(Cc2cccc(O/C=C(\OCC)C(F)(F)F)c2F)c1 [compound 301]
Test B disease control rating [1, 15]: 0% | Test A disease control rating [6, 15]: 100% | Test C disease control rating [5, 15]: 100* %

COC(COc1ccc(Cn2cc(Br)cn2)cc1)(O[Si](C)(C)C)C(F)(F)F (centres unmarked) [compound 395]
pest or weed control at 50 ppm [1, 13]: 100% | pest or weed control at 50 ppm ([6]; Phakopsora pachyrhizi, 50 ppm test suspension, 0 = no control): 100% | pest or weed control at 50 ppm [5, 12]: 100%

CCO/C(=C\Oc1cccc(Cn2cc(C(=O)NCc3ncccn3)cn2)c1)C(F)(F)F [compound 402]
Test A disease control rating [6, 15]: 97% | Test D disease control rating ([3]; 0 = no control): 5*** % | Test E disease control rating ([4]; 0 = no control): 0*** % | Test C disease control rating [5, 14]: 48*** %

CCO/C(=C\Oc1ccc(Cn2cc(C(=O)NCC(F)F)cn2)cc1)C(F)(F)F [compound 436]
Test B disease control rating [1, 15]: 0% | Test A disease control rating [6, 15]: 99% | Test E disease control rating ([4]; 0 = no control): 0*** % | Test C disease control rating [5, 14]: 48*** %

CCOC(=O)c1cnn(COc2ccc(O/C=C(\OCC)C(F)(F)F)c(F)c2)c1 [compound 454]
pest or weed control at 10 ppm [1, 11]: 0% | pest or weed control at 10 ppm ([6]; Phakopsora pachyrhizi, 10 ppm test suspension, 0 = no control): 100% | pest or weed control at 10 ppm ([5]; Erysiphe necator, 10 ppm test suspension, 0 = no control): 100%
